Patent US4128541A, “Pentapeptide with morphine- like activity” (American Home Products Corporation, priority 1976, dated 1978)
Ends that are not written are not given here.

Key:
[1] = test system: rats; assay: rat-tail flick method of D'Amour and Smith (analgesia); assay type: in vivo; settings: for Mean % Change ± SEM (latency, drug minus baseline) / Mean Latency ± SEM, Drug: injected into the lateral ventricle in Ringer's solution, 100 μg (morphine sulfate 10 μg)
Description: In this test method, which is a standard test for analgesia, a light beam is focused on the tip of the rat's tail, and the pain threshold of the animal is measured by the latency of the rat to remove his tail from the noxious heat source. When tested by the rat-tail flick method by intracerebroventricular injection, according to the procedure of Belluzzi et al., Nature, 260, 625 (1976), the pentapeptide H-Tyr-Gly-Gly-Phe-Ser-OHproduced the effects set forth in Table I.
*All drugs were dissolved in […] of Ringer's solution and injected into
the lateral ventricle through permanently-indwelling cannulae.
*Subcutaneous in saline solution.

[2] = test system: rats; settings: injection in the brain ventricle in rats; fully reversible by naloxone; Beluzzi et al.; cited from earlier work
[3] = test system: opiate receptor (3H-naloxone binding) in brain homogenates; settings: literature; cited from earlier work
[4] = test system: guinea pig ileum; settings: literature, Hughes et al.; cited from earlier work
[5] = test system: mouse vas deferens; settings: literature, Hughes et al.; cited from earlier work
[6] = test system: guinea pig ileum; assay: electrically-induced contraction of guinea pig ileum; settings: effect blocked by naloxone
Text: Enkephalin, a natural opiate receptor agonist in brain, has been identified [see Hughes et al., Nature, 256, 577(1975)] as a mixture of two pentapeptides: H-Tyr-Gly-Gly-Phe-Met-OH (methionine-enkephalin) and H-Tyr-Gly-Gly-Phe-Leu-OH (leucine-enkephalin).

[7] = test system: rats; assay: rat-tail flick method of D'Amour and Smith (analgesia); assay type: in vivo; settings: intravenous (i.v.) injection, 5 mg/kg
[8] = test system: opiate receptors; assay: binding to opiate receptors in vitro; settings: effect blocked by naloxone
[9] = rat-tail flick, 10 mg/kg subcutaneous in saline solution

| Molecule | Mean % Change ± SEM (latency, drug minus baseline) ([1]; rat-tail flick) [%] | Mean Latency ± SEM, Drug ([1]; rat-tail flick) | analgesia (in words) [2] | inhibition of stereospecific receptor binding of 3H-naloxone (in words) [3] | block of electrically evoked contractions of guinea pig ileum (in words) [4] | block of electrically evoked contractions of mouse vas deferens (in words) [5] | pain threshold (in words) ([1]; injection into the lateral brain ventricle, significant difference versus vehicle) | Mean % Change ± SEM (latency) [1, 9] [%] | Mean Latency ± SEM, Pentapeptide [1, 9] | analgesic effect (in words) ([1]; subcutaneous (s.c.) injection, 10 mg/kg in saline) | block of electrically-induced contraction of guinea pig ileum (in words) [6] | analgesic activity (in words) [7] | binding to opiate receptors in vitro (in words) [8] |
| --- | --- | --- | --- | --- | --- | --- | --- | --- | --- | --- | --- | --- | --- |
| CN1CC[C@]23c4c5ccc(O)c4O[C@H]2[C@@H](O)C=C[C@H]3[C@H]1C5.O=S(=O)(O)O [Morphine Sulfate] | 65.4 | 6.59 | – | – | – | – | – | – | – | – | – | – | – |
| H-Tyr-Gly-Gly-Phe-Leu-OH [leucine-enkephalin] | – | – | profound analgesia | inhibit | mimic the ability of morphine to block | mimic the ability of morphine to block | – | – | – | – | – | – | – |
| CSCC[C@H](NC(=O)[C@H](Cc1ccccc1)NC(=O)CNC(=O)CNC(=O)[C@@H](N)Cc1ccc(O)cc1)C(=O)O [Methionine-Enkephalin, H-Tyr-Gly-Gly-Phe-Met-OH] | 37.2 | 5.19 | profound analgesia | inhibit | mimic the ability of morphine to block | mimic the ability of morphine to block | – | – | – | – | – | – | – |
| YGGFS [H-Tyr-Gly-Gly-Phe-Ser-OH, L-Tyrosyl-Glycyl-Glycyl-L-Phenylalanyl-L-Serine] | 39.25 | 5.77 | – | – | – | – | increase in pain threshold | 26.16 ± 14.36 | 5.15 ± 0.60 | weak analgesic effect | blocks | no analgesic activity | weak binding |
